For orientation: EC50 means the midpoint of the concentration-response curve. In general, IC50 refers to the concentration that inhibits the measured activity by half.

Read-outs that look alike come from different tables or passages of the source.

The test system of series [1] is U87MG cells. The experiment in a line: Apoptotic cells by nuclear morphology (Hoechst) in U87MG. It counts as cell-based. To be noted: for apoptotic cells: at EC50, 9 h.
The subject of the next series is phospho-EGFR. Kind of series: Immunofluorescence of phospho-EGFR in U87MG cells. It counts as cell-based.
Series [2] has as its system HBMEC. Kind of series: MTT cell viability, HBMEC. Format: cell-based, human. To be noted: 24 h, 100 µM. As for the experimental part:
(§1) To analyze molecules’ cytotoxicity, U87MG and U87MG-wtEGFR cells were seeded into 96-well plates at a density of 2.5 × 10^4 cells/mL, and after 48 h were incubated with 0.1, 1, 10, or 100 µM of each molecule diluted in (non-supplemented) cell medium for 24 h. The half-maximal effective concentration (EC50) of the most cytotoxic compounds was quantified. Dose–response data were also obtained for treatment with triton X-100 (positive control) and DMSO (vehicle; negative control). The cytotoxicity of selected molecules from initial screening was tested in HBMEC at 100 µM for 24 h. HBMEC were seeded at a density of 8 × 10^4 cell/mL in 96-well plates and after 48 h were incubated with the molecules.
(§2) In screening assays, cell viability was evaluated using thiazolyl blue tetrazolium bromide (MTT). Briefly, a culture medium containing 0.5 mg/mL of MTT was added to each well for 90 min at 37 °C. The supernatant was removed and the formed formazan crystals in viable cells were solubilized with 0.04 N HCl in isopropanol solution. The absorbance was recorded using a microplate reader (Zenyth 3100, Anthos Labtec Instruments, Salzburg, Austria) at 595 nm, and values of cell viability were calculated as percentage of negative control.

In a further series the test system is U87MG-wtEGFR cells. The experiment in a line: MTT cell viability, U87MG-wtEGFR. Format: cell-based. To be noted: 24 h; for cell death: screening 0.1-100 µM. As for the experimental part:
as §1, with “The half-maximal effective concentration (EC50) of the most cytotoxic compounds was quantified.” left out
In screening assays, cell viability was evaluated using thiazolyl blue tetrazolium bromide (MTT). Briefly, a culture medium containing 0.5 mg/mL of MTT was added to each well for 90 min at 37 °C. The supernatant was removed and the formed formazan crystals in viable cells were solubilized with 0.04 N HCl in isopropanol solution.

The next series concerns phospho-AKT. The experiment in a line: Immunofluorescence of phospho-AKT in U87MG cells. It counts as cell-based. To be noted: at EC50, after 6 h exposure.
Series [3] deals with U87MG cells. The experiment in a line: MTT cell viability, U87MG. It counts as cell-based. Conditions: 24 h; for EC50 / cell death: U87MG; for cell death: screening 0.1-100 µM. As for the experimental part:
as §1, §2

The subject of series [4] is HBMEC. The experiment in a line: HBMEC integrity and morphology (β-catenin, F-actin immunofluorescence). Format: cell-based, human. The text has this: (§3) HBMEC in coverslips were stained for: the junctional protein β-catenin (1:100, Thermo Fisher Scientific, Waltham, MA, USA, #71-2700), the cytoskeleton protein F-actin (1:1000, Phalloidin dye, Abcam, Cambridge, UK, #ab17675), and the efflux transporter P-gp (1:50, Santa Cruz Biotechnology, Dallas, TX, USA, #sc-390883). HBMEC seeded on polyester inserts for transport assays were also stained for the junctional protein zonula occludens-1 (ZO-1, 1:200, Thermo Fisher Scientific, Waltham, MA, USA, #40-2200) and the cytoskeleton protein vimentin (1:100, Thermo Fisher Scientific, Waltham, MA, USA, #MA3745).
(§4) Incubations with primary antibodies occurred overnight at 4 °C. Incubation with the secondary antibodies Alexa Fluor 555 (1:500, Thermo Fisher Scientific, Waltham, MA, USA, #A21428) or Alexa Fluor 488 (1:500, Thermo Fisher Scientific, Waltham, MA, USA, #A11001) lasted for 1 h at room temperature. Nuclei were counterstained with Hoechst 33342 dye (1:1000, Thermo Fisher Scientific, Waltham, MA, USA, #33342) for 10 min. Before mounting with DPX (Merck Millipore, Burlington, MA, USA), cells were dehydrated with methanol. Negative controls were performed.
(§5) All acquired images were treated in ImageJ (NIH, Bethesda, MD, USA). Assessment of nuclear morphology following Hoechst staining was evaluated. For fluorescence intensity measures, the regions of interest were selected in Image J, and corresponding integrated densities were obtained. The representative 3D plots for BBB integrity were obtained by merged pixel intensity using the surface plot tool of Image J. For F-actin stress fibers analysis, the plot profile tool of Image J was used considering each defined cell-ferret diameter.
For analysis of β-catenin internalization and HBMEC morphological changes, Icy software was used. At least 5 cells per field were delineated and the conveyed values of membrane/interior pixels and roundness (area/perimeter^2) were exported and analyzed. Taking advantage of membrane staining (β-catenin), the BBB’s integrity was also analyzed by quantifying the total area of intercellular gaps in the HBMEC monolayer.

The test system of a further series is P-gp. The experiment in a line: P-gp expression in HBMEC (immunofluorescence). Format: cell-based, human. To be noted: U87MG EC50, 9 h.
Source text: as §3, §4, §5

The next series concerns U87 cells. Details: method as in PMID 34794398. Conditions: depending on the incubation time; cited from earlier work.
For series [5] the following is noted: several cell-based studies; cited from earlier work.
Series [6] concerns patient-derived cell lines. Details: method as in PMID 34794398. Conditions: 72 h, read-out: median IC50; cited from earlier work.

In turn, `C=CC(=O)Nc1cc2c(Nc3ccc(F)c(Cl)c3)ncnc2cc1OCCCN1CCOCC1` [Mol 25, canertinib, reference compound] yielded an apoptotic cells in the series on U87MG cells [1] of roughly 85%. In addition, in the series with phospho-EGFR (at EC50, 9 h), the “reduction of mean intensity of phosphorylated EGFR” value worked out at 92.6%. Also, the “inhibition of phospho-EGFR expression” value with phospho-EGFR (at EC50, after 6 h exposure) is recorded as greater than 50%. Also, the “impairment of HBMEC cell viability” value with HBMEC [2] (human) is given as roughly 100%. Also, the EC50 in the series with U87MG-wtEGFR cells amounted to 11.3 ± 2.15 µM; with U87MG cells [3] (Homo sapiens, U-87 MG) it was 16.3 ± 2.26 µM. Moreover, the cell death in the series with U87MG-wtEGFR cells (U87MG-wtEGFR, MTT) is reported as no less than 50%; with U87MG cells [3], no less than 50%. Further, the “inhibition of phospho-AKT expression” value with phospho-AKT is greater than 50%. Further, the viability at 100 µM with U87MG cells [3] (Homo sapiens, U-87 MG, 100 µM, GB cell line not given, read-out: viable cells) is roughly 0%. For the same compound, the HBMEC detachment in the series on HBMEC [4] (human, 9 h) was 100%.
In turn, `Brc1ccc(Nc2ncnc3ccccc23)cc1` [Mol 17] came in with an apoptotic cells in the series with U87MG cells [1] of roughly 40%. For the same compound, in the series on phospho-EGFR (at EC50, 9 h), the “phospho-EGFR expression, of that observed in control” value is given as “about 30%”. Further, in the series on HBMEC [2] (human), the “impairment of HBMEC cell viability” value is listed as “about 65%”. Moreover, the EC50 with U87MG-wtEGFR cells (U87MG-wtEGFR, MTT, read-out: EC50) is 50.4 ± 5.21 µM. Also, in the series on U87MG-wtEGFR cells (U87MG-wtEGFR, MTT), the cell death was no less than 50%. In the series with P-gp, the “P-gp expression (mean intensity) in HBMEC” value was “significant increase in P-gp mean intensity”. This compound showed an EC50 in the series with U87MG cells [3] (Homo sapiens, U-87 MG) of 129 ± 14.5 µM. In addition, the cell death with U87MG cells [3] is recorded as no less than 50%. For the same compound, in the series with HBMEC [4] (human, 9 h), the “F-actin stress fibers per cell” value is “highly increased the number of stress fibers/cell”; the “HBMEC shape (roundness)” value was “increased cell roundness”; the “disrupted barrier integrity (endothelial gaps), of control” value is listed as 78%; the “β-catenin expression and location” value is “irregular and discontinuous appearance”.
Consider `C=CC(=O)Nc1ccc2ncnc(Nc3cccc(Br)c3)c2c1` [Mol 27], for which the apoptotic cell death with U87MG cells [1] (at EC50, 6 h) stood at 12.8%. Moreover, the apoptotic cells in the series on U87MG cells [1] amounted to 31.9%. In addition, in the series on HBMEC [2] (MTT), the “impairment of HBMEC cell viability” value is recorded as roughly 58%. The “inhibition of phospho-AKT expression” value in the series on phospho-AKT was greater than 50%. The “P-gp expression (mean intensity) in HBMEC” value with P-gp was “significant increase in P-gp mean intensity”. In the series with U87MG cells [3] (Homo sapiens, U-87 MG), this compound had an EC50 of 22.7 ± 2.22 µM. Moreover, the cell death in the series on U87MG cells [3] was no less than 50%. In the series with HBMEC [4] (HBMEC, U87MG EC50, 9 h), the “F-actin stress fibers per cell” value is recorded as “highly increased the number of stress fibers/cell”; the “HBMEC shape (roundness)” value is reported as “increased cell roundness”; the “β-catenin expression and location” value is “irregular and discontinuous appearance”. Moreover, in the series on HBMEC [4] (HBMEC, U87MG EC50, 9 h, β-catenin staining), the “disrupted barrier integrity (endothelial gaps), of control” value turned out to be 82%.
Take `Cn1nnc2c(C(N)=O)ncn2c1=O` [TMZ, temozolomide]: the IC50 with U87 cells is 124 to 230 µM; in series [6], 800 µM. Also, in [5], the “doses at which more than 50% cytotoxicity was seen” value is on record as “up to 4000 µM”.
